According to patent US20160166560A1, “Urea Compounds and Their Use as FAAH Enzyme Inhibitors” (BIAL-PORTELA & Cª, S.A., priority 2013, published 2016):
Where a name gives a salt, the structure may show the parent alone.

How the values were obtained:
[1] = molecular target: T1, FAAH (Mus musculus, UniProt O08914); assay: In vitro/ex vivo FAAH activity determination in brain after intra-tracheal instillation; design: Liver and brain fragments were removed and processed for enzymatic activity determination; from tissue; species or system male NMRI mice; conditions: remaining enzymatic activity vs controls
T1 sequence (O08914 1-579): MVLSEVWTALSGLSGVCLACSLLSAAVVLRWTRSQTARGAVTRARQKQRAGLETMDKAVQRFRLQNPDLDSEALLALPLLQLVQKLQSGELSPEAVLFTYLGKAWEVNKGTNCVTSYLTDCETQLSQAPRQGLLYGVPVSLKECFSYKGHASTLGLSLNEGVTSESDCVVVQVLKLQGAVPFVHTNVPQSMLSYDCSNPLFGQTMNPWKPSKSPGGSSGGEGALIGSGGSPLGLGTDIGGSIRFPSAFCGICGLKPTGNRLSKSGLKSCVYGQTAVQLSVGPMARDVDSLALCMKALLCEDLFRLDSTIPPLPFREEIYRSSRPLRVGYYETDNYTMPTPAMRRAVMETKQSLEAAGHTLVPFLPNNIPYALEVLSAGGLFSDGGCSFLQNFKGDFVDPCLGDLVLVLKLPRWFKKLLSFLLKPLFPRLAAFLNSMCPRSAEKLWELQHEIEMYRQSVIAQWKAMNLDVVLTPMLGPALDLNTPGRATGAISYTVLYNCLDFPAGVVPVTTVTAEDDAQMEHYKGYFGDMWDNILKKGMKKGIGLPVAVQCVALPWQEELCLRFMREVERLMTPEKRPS
Protocol: (§1) To evaluate the selectivity of test compounds in inhibiting FAAH activity, male NMRI mice were administrated following instillation with 1 mg/kg compound and were sacrificed after 8 h treatment. Liver and brain fragments were removed and processed for enzymatic activity determination.
(§2) FAAH activity was measured as the amount of ^3H-ethanolamine formed, by liquid scintillation counting, from the hydrolysis of the substrate anandamide (AEA, labeled with ^3H on the ethanolamine part of the molecule). The percentage of remaining enzymatic activity was calculated in respect to controls and after blank subtraction. Therefore, a low value for the test compounds indicates a strong inhibitor.
(§3) Male NMRI mice (body weight range: 25-35 g) were obtained from Harlan Laboratories (Barcelona, Spain). Animals were kept 10 per cage, under controlled environmental conditions (12 hr light [8 am]/12 hr dark [8 pm]cycle; room temperature 22±1° C.). Food and tap water were allowed ad libitum. Animals were habituated to the animal facilities at least for a week prior to experiments. The experiments were all carried out during daylight hours.
(§4) Animals were fasted overnight before administration of compounds. […] After administration the animals were given atipamezole (1 mg/kg) to reverse the sedative and analgesic effects induced by the anaesthesia.
(§5) Fifteen minutes before sacrifice, animals were anesthetized with pentobarbital 60 mg/kg administrated intra-peritoneally. The brain (without cerebellum) and a fragment of liver were collected into plastic vials containing membrane buffer (3 mM MgCl2, 1 mM EDTA, 50 mM Tris HCl, pH 7.4). Glass beads (2.5 mm BioSpec Products, Bartlesville, Okla., USA) were added to the vials containing the brain and liver tissues. Tissues were stored at −20° C. until analysis.
(§6) Anandamide [ethanolamine-1-^3H-] was obtained from American Radiochemicals—with a specific activity of 60 Ci/mmol. All other reagents were obtained from Sigma-Aldrich. Optiphase Supermix was obtained from Perkin Elmer.
(§7) Brain and liver tissues were thawed and homogenized in 10 volumes of membrane buffer (3 mM MgCl2, 1 mM EDTA, 50 mM Tris HCl, pH 7.4) with homogenizer Precellys 24 Dual Tissue Homogenizer (Bertin Technologies) for 2 cycles of 5 sec (5000 rpm).
(§8) Total protein in the tissue homogenates was determined with the BioRad Protein Assay (BioRad) using a standard curve of BSA ([…]). Tissue homogenates were diluted to appropriate concentration for enzymatic determination in assay buffer (1 mM EDTA, 10 mM Tris HCl, pH 7.6).
(§9) Reaction mix (total volume 200 μL) contained 2 μM AEA (2 μM AEA+5 nM ^3H-AEA), 0.1% fatty acid free BSA, 15 μg (brain) or 5 μg (liver) protein, in assay buffer (1 mM EDTA, 10 mM Tris pH 7.6).
(§10) The test compound was used at a level of 1 mg/kg protein. After 15 minutes pre-incubation at 37° C. of the protein sample, reaction was started by the addition of the substrate solution (cold AEA+radiolabelled AEA+BSA). Reaction was carried out for 12 minutes for brain and liver tissues. Reaction was terminated by addition of 400 μL chloroform:methanol (1:1, v/v) solution. Reaction samples were vortex twice, left on ice for 5 minutes and then centrifuged in the microfuge for 7 minutes, 7000 rpm. 200 μL of the obtained supernatants were added to […] Optiphase Supermix scintillation cocktail previously distributed in 24-well plates.
(§11) Counts per minute (cpm) were determined in a Microbeta TriLux scintillation counter. In each assay blank samples (without protein) were prepared.

[2] = Solubility assay in purified water; format: physicochemical; conditions: pH 5.7, thermodynamic from solid; purified water pH=5.6-5.8, stirring 2 h, room temperature, HPLC
Protocol: A saturated solution was prepared by adding the test compound in excess to 1 mL of purified water (pH=5.6-5.8) followed by stirring of the mixture for 2 h at room temperature. Thereupon, the un-dissolved material was removed by filtration and the amount of test compound in the filtrate was quantified by HPLC using a calibration curve.

[3] = test system: CYPs; assay: CYPs metabolic stability assay in HLM (human liver microsomes); format: in vitro ADME; conditions: HLM 1 mg/ml protein, compound 5 μM, 60 min, 37° C.; for Control (% remain): absence of NADPH; for CYP+ (% remain): with NADPH 1 mM
Protocol: Stability of the test compounds was performed in HLM (human liver microsomes) in the presence and in the absence of NADPH.
The stability was measured using the incubation mixture (100 μl total volume) contained 1 mg/ml total protein, MgCl2 5 mM and 50 mM K-phosphate buffer. Samples were incubated in the presence and in the absence of NADPH 1 mM. Reactions were pre-incubated 5 min and the reaction initiated with the compound under test (at a concentration of 5 μM). Samples were incubated for 60 min in a shaking water bath at 37° C. The reaction was stopped by adding 100 μl of acetonitrile. Samples were then centrifuged, filtered and supematant injected in HLPC-MSD. Test compounds were dissolved in DMSO and the final concentration of DMSO in the reaction was below 0.5% (v/v). At T0 acetonitrile was added before adding the compound. All experiments were performed with samples in duplicate.

[4] = molecular target: T1, FAAH; assay: In vitro/ex vivo FAAH activity determination in liver after intra-tracheal instillation; design: Liver and brain fragments were removed and processed for enzymatic activity determination; from tissue; host or cells: mouse liver fragment homogenate; species or system male NMRI mice; conditions: remaining enzymatic activity vs controls
Protocol: as §1, §2, §3, §4, §5, §6, §7, §8, §9, §10, §11

[5] = 1 mg/kg intra-tracheal instillation, sacrificed after 8 h
[6] = tested at 0.1 mg/kg rather than 1 mg/kg

FAAH Activity - Brain itc (% C) [1, 5] [% C]	solubility at 2 h [2] [mg/mL]	Control (% remain) [3] [% remain]	CYP+ (% remain) [3] [% remain]	FAAH Activity - Liver itc (% C) [4, 5] [% C]	FAAH Activity - Brain itc (% C) [1, 6] [% C]	FAAH Activity - Liver itc (% C) [4, 6] [% C]	SMILES
96.0	7.7	103.5	17.5	5.3			COc1cccc(CN2CCC(N(C)C(=O)n3cnc(-c4cccc(NS(N)(=O)=O)c4)c3)CC2)c1 [Example 3, N-(1-(3-methoxybenzyl)piperidin-4-yl)-N-methyl-4-(3-(sulfamoylamino)phenyl)-1H-imidazole-1-carboxamide hydrochloride]
91.9	14.1	103.4	21.4	4.2			COc1cccc(CN2CCC(N(C)C(=O)n3cnc(-c4cccc(NC(N)=O)c4)c3)CC2)c1.Cl [Example 17, N-(1-(3-methoxybenzyl)piperidin-4-yl)-N-methyl-4-(3-ureidophenyl)-1 H-imidazole-1-carboxamide hydrochloride]
92.4	4.3			8.2			CN(C(=O)n1cnc(-c2cccc(NC(N)=O)c2)c1)C1CCN(Cc2ccccc2)CC1.O=C(O)/C=C\C(=O)O [Example 21, N-(1-benzylpiperidin-4-yl)-N-methyl-4-(3-ureidophenyl)-1H-imidazole-1-carboxamide maleate]
82.1	> 16			11.5			COc1cccc(CN2CCC(N(C)C(=O)n3cnc(-c4cccc(NS(N)(=O)=O)c4)c3)CC2)c1.CS(=O)(=O)O [Example 23, N-(1-(3-methoxybenzyl)piperidin-4-yl)-N-methyl-4-(3-(sulfamoylamino)phenyl)-1H-imidazole-1-carboxamide methanesulfonate]
91.0		84.8	66.0	3.4			CN(C(=O)n1cnc(-c2ccc(OS(N)(=O)=O)cc2)c1)C1CCN(c2ccc(O)cc2)CC1 [Example 28, 4-(1-((1-(4-hydroxyphenyl)piperidin-4-yl)(methyl)carbamoyl)-1H-imidazol-4-yl)phenyl sulfamate hydrochloride]
97.6		79.6	79.5	10.5			CN(C(=O)n1cnc(-c2cccc(OS(N)(=O)=O)c2)c1)C1CCN(c2ccc(Br)c(O)c2)CC1 [Example 29, 3-(1-((1-(4-bromo-3-hydroxyphenyl)piperidin-4-yl)(methyl)carbamoyl)-1 H-imidazol-4-yl)phenyl sulfamate hydrochloride]
107.1		97.8	64.8	13.7			CN(C(=O)n1cnc(-c2cccc(OS(N)(=O)=O)c2)c1)C1CCN(Cc2ccc3c(c2)OCO3)CC1 [Example 30, 3-(1-((1-(benzo[d][1,3]dioxol-5-ylmethyl)piperidin-4-yl)(methyl)carbamoyl)-1H-imidazol-4-yl)phenyl sulfamate hydrochloride]
		111.7	18.5		87.7	13.1	COc1cc(CN2CCC(N(C)C(=O)n3cnc(-c4cccc(C(N)=O)c4)c3)CC2)ccc1F [Example 31, 4-(3-carbamoylphenyl)-N-(1-(4-fluoro-3-methoxybenzyl)piperidin-4-yl)-N-methyl-1H-imidazole-1-carboxamide hydrochloride]
		115.2	14.2		96.0	12.8	COc1ccc(F)c(CN2CCC(N(C)C(=O)n3cnc(-c4cccc(C(N)=O)c4)c3)CC2)c1 [Example 32, 4-(3-carbamoylphenyl)-N-(1-(2-fluoro-5-methoxybenzyl)piperidin-4-yl)-N-methyl-1H-imidazole-1-carboxamide hydrochloride]
102	> 14.9	112.2	70.4	3.4			COc1ccc(CN2CCC(N(C)C(=O)n3cnc(-c4cccc(C(N)=O)c4)c3)CC2)cc1 [Example 33, 4-(3-carbamoylphenyl)-N-(1-(4-methoxybenzyl)piperidin-4-yl)-N-methyl-1H-imidazole-1-carboxamide hydrochloride]
78.7	> 14.7	105.4	9.1	3.3			COc1ccccc1N1CCC(N(C)C(=O)n2cnc(-c3cccc(C(N)=O)c3)c2)CC1 [Example 34, 4-(3-carbamoylphenyl)-N-(1-(2-methoxyphenyl)piperidin-4-yl)-N-methyl-1 H-imidazole-1-carboxamide hydrochloride]
96.6	10.2	73.8	81.0	4.3			CN(C(=O)n1cnc(-c2cccc(C(N)=O)c2)c1)C1CCN(c2ccc(O)cc2)CC1 [Example 35, 4-(3-carbamoylphenyl)-N-(1-(4-hydroxyphenyl)piperidin-4-yl)-N-methyl-1H-imidazole-1-carboxamide hydrochloride]
